Converted amounts (≈) assume the structure as drawn.
Key:
Type in all cases: functional
Staphylococcus aureus = assay: Antibacterial activity against Staphylococcus aureus ATCC 12600 after 24 hrs by agar dilution method; settings: ATCC 12600, 24 h
Listeria monocytogenes = assay: Antibacterial activity against Listeria monocytogenes ATCC 15313 after 24 hrs by agar dilution method; settings: ATCC 15313, 24 h
Escherichia coli = assay: Antibacterial activity against Escherichia coli ATCC 25922 after 24 hrs by agar dilution method; settings: ATCC 25922, 24 h
Salmonella enterica = assay: Antibacterial activity against Salmonella enterica ATCC 9184 after 24 hrs by agar dilution method; settings: ATCC 9184, 24 h

Structure (SMILES) | MIC (Staphylococcus aureus) [µg/mL] | MIC (Listeria monocytogenes) [µg/mL] | MIC (Escherichia coli) [µg/mL] | MIC (Salmonella enterica) [µg/mL]
CCOC(=O)c1cnn(-c2ccc(C)cc2)c1NC(=O)c1cc2ccccc2oc1=O | > 128 | 32 (≈ 76.7 µM) | > 128 | > 128
Cc1ccc(-n2ncc(C(=O)O)c2NC(=O)c2cc3cc([N+](=O)[O-])ccc3oc2=O)cc1 | > 128 | > 128 | 4 (≈ 9.21 µM) | 64 (≈ 147 µM)
O=C(O)c1cnn(-c2ccccc2)c1NC(=O)c1cc2cc(Br)ccc2oc1=O | > 128 | > 128 | > 128 | > 128
Cc1ccc2oc(=O)c(C(=O)Nc3c(C#N)cnn3-c3ccc(F)cc3)cc2c1 | > 128 | > 128 | > 128 | > 128
Cc1ccc(-n2ncc(C#N)c2NC(=O)c2cc3cc([N+](=O)[O-])ccc3oc2=O)cc1 | > 128 | > 128 | > 128 | > 128
CCOC(=O)c1cnn(-c2ccc(F)cc2)c1NC(=O)c1cc2ccc(N(CC)CC)cc2oc1=O | > 128 | > 128 | > 128 | > 128
CCOC(=O)c1cnn(-c2ccccc2)c1NC(=O)c1cc2ccc(N(CC)CC)cc2oc1=O | 64 (≈ 135 µM) | 64 (≈ 135 µM) | 64 (≈ 135 µM) | 64 (≈ 135 µM)
CCOC(=O)c1cnn(-c2ccc(F)cc2)c1NC(=O)c1cc2ccccc2oc1=O | > 128 | > 128 | > 128 | > 128
O=C(O)c1cnn(-c2ccc(F)cc2)c1NC(=O)c1cc2ccccc2oc1=O | > 128 | > 128 | > 128 | > 128
O=C(O)c1cnn(-c2ccccc2)c1NC(=O)c1cc2cc([N+](=O)[O-])ccc2oc1=O | 64 (≈ 152 µM) | > 128 | 64 (≈ 152 µM) | 64 (≈ 152 µM)
O=C(O)c1cnn(-c2ccc(F)cc2)c1NC(=O)c1cc2cc(Br)ccc2oc1=O | > 128 | 32 (≈ 67.8 µM) | 4 (≈ 8.47 µM) | 32 (≈ 67.8 µM)
CCOC(=O)c1cnn(-c2ccccc2)c1NC(=O)c1cc2cc([N+](=O)[O-])ccc2oc1=O | > 128 | > 128 | > 128 | > 128
Cc1ccc2oc(=O)c(C(=O)Nc3c(C(=O)O)cnn3-c3ccc(F)cc3)cc2c1 | 64 (≈ 157 µM) | 32 (≈ 78.6 µM) | 4 (≈ 9.82 µM) | 32 (≈ 78.6 µM)
O=C(O)c1cnn(-c2ccc(F)cc2)c1NC(=O)c1cc2cc(Cl)ccc2oc1=O | 64 (≈ 150 µM) | 32 (≈ 74.8 µM) | 32 (≈ 74.8 µM) | > 128
CCOC(=O)c1cnn(-c2ccc(C)cc2)c1NC(=O)c1cc2cc([N+](=O)[O-])ccc2oc1=O | > 128 | > 128 | > 128 | > 128
N#Cc1cnn(-c2ccccc2)c1NC(=O)c1cc2cc([N+](=O)[O-])ccc2oc1=O | > 128 | > 128 | > 128 | > 128
Cc1ccc(-n2ncc(C(=O)O)c2NC(=O)c2cc3ccccc3oc2=O)cc1 | 64 (≈ 164 µM) | > 128 | 64 (≈ 164 µM) | > 128
CCOC(=O)c1cnn(-c2ccc(F)cc2)c1NC(=O)c1cc2cc(Br)ccc2oc1=O | 64 (≈ 128 µM) | > 128 | 4 (≈ 8 µM) | > 128
Cc1ccc(-n2ncc(C#N)c2NC(=O)c2cc3cc(Cl)ccc3oc2=O)cc1 | > 128 | > 128 | > 128 | > 128
N#Cc1cnn(-c2ccccc2)c1NC(=O)c1cc2cc(Br)ccc2oc1=O | > 128 | > 128 | > 128 | > 128
N#Cc1cnn(-c2ccc(F)cc2)c1NC(=O)c1cc2cc([N+](=O)[O-])ccc2oc1=O | > 128 | > 128 | > 128 | > 128

Continued by falling MIC (Staphylococcus aureus), values first:

MIC (Staphylococcus aureus) [µg/mL] | MIC (Listeria monocytogenes) [µg/mL] | MIC (Escherichia coli) [µg/mL] | MIC (Salmonella enterica) [µg/mL] | Structure (SMILES)
64 (≈ 137 µM) | > 128 | 64 (≈ 137 µM) | > 128 | Cc1ccc(-n2ncc(C(=O)O)c2NC(=O)c2cc3cc(Br)ccc3oc2=O)cc1
64 (≈ 144 µM) | > 128 | 64 (≈ 144 µM) | 64 (≈ 144 µM) | CCN(CC)c1ccc2cc(C(=O)Nc3c(C#N)cnn3-c3ccc(F)cc3)c(=O)oc2c1
64 (≈ 164 µM) | 32 (≈ 82.2 µM) | 32 (≈ 82.2 µM) | 32 (≈ 82.2 µM) | Cc1ccc2oc(=O)c(C(=O)Nc3c(C(=O)O)cnn3-c3ccccc3)cc2c1
64 (≈ 139 µM) | 64 (≈ 139 µM) | 64 (≈ 139 µM) | 64 (≈ 139 µM) | CCN(CC)c1ccc2cc(C(=O)Nc3c(C(=O)O)cnn3-c3ccc(C)cc3)c(=O)oc2c1
32 (≈ 78.1 µM) | 32 (≈ 78.1 µM) | 32 (≈ 78.1 µM) | > 128 | O=C(O)c1cnn(-c2ccccc2)c1NC(=O)c1cc2cc(Cl)ccc2oc1=O
32 (≈ 68.9 µM) | 16 (≈ 34.4 µM) | 32 (≈ 68.9 µM) | 16 (≈ 34.4 µM) | CCN(CC)c1ccc2cc(C(=O)Nc3c(C(=O)O)cnn3-c3ccc(F)cc3)c(=O)oc2c1
32 (≈ 74.2 µM) | > 128 | 64 (≈ 148 µM) | > 128 | CCOC(=O)c1cnn(-c2ccc(C)cc2)c1NC(=O)c1cc2cc(C)ccc2oc1=O
32 (≈ 64.5 µM) | 2 (≈ 4.03 µM) | 32 (≈ 64.5 µM) | 2 (≈ 4.03 µM) | CCOC(=O)c1cnn(-c2ccc(C)cc2)c1NC(=O)c1cc2cc(Br)ccc2oc1=O
32 (≈ 76.7 µM) | 32 (≈ 76.7 µM) | 16 (≈ 38.3 µM) | 16 (≈ 38.3 µM) | CCOC(=O)c1cnn(-c2ccccc2)c1NC(=O)c1cc2cc(C)ccc2oc1=O
32 (≈ 78.3 µM) | 32 (≈ 78.3 µM) | 32 (≈ 78.3 µM) | 64 (≈ 157 µM) | N#Cc1cnn(-c2ccc(F)cc2)c1NC(=O)c1cc2cc(Cl)ccc2oc1=O
16 (≈ 37.8 µM) | 16 (≈ 37.8 µM) | 8 (≈ 18.9 µM) | 16 (≈ 37.8 µM) | Cc1ccc2oc(=O)c(C(=O)Nc3c(C(=O)O)cnn3-c3ccc(Cl)cc3)cc2c1
16 (≈ 33.2 µM) | 16 (≈ 33.2 µM) | 16 (≈ 33.2 µM) | 64 (≈ 133 µM) | CCOC(=O)c1cnn(-c2ccccc2)c1NC(=O)c1cc2cc(Br)ccc2oc1=O
16 (≈ 40.9 µM) | 32 (≈ 81.9 µM) | 32 (≈ 81.9 µM) | 64 (≈ 164 µM) | N#Cc1cnn(-c2ccccc2)c1NC(=O)c1cc2cc(Cl)ccc2oc1=O
16 (≈ 44.9 µM) | 64 (≈ 180 µM) | 64 (≈ 180 µM) | 32 (≈ 89.8 µM) | N#Cc1cnn(-c2ccccc2)c1NC(=O)c1cc2ccccc2oc1=O
8 (≈ 21.6 µM) | > 128 | 32 (≈ 86.4 µM) | > 128 | Cc1ccc(-n2ncc(C#N)c2NC(=O)c2cc3ccccc3oc2=O)cc1
4 (≈ 8.52 µM) | 16 (≈ 34.1 µM) | 8 (≈ 17 µM) | 0.25 (≈ 0.532 µM) | N#Cc1cnn(-c2ccc(Cl)cc2)c1NC(=O)c1cc2cc(Br)ccc2oc1=O
4 (≈ 10.2 µM) | 32 (≈ 81.9 µM) | 32 (≈ 81.9 µM) | 16 (≈ 40.9 µM) | N#Cc1cnn(-c2ccc(Cl)cc2)c1NC(=O)c1cc2ccccc2oc1=O
4 (≈ 8.85 µM) | 2 (≈ 4.43 µM) | 64 (≈ 142 µM) | > 128 | CCOC(=O)c1cnn(-c2ccc(C)cc2)c1NC(=O)c1cc2cc(Cl)ccc2oc1=O
4 (≈ 7.74 µM) | 1 (≈ 1.94 µM) | 8 (≈ 15.5 µM) | 32 (≈ 61.9 µM) | CCOC(=O)c1cnn(-c2ccc(Cl)cc2)c1NC(=O)c1cc2cc(Br)ccc2oc1=O
2 (≈ 4.94 µM) | 16 (≈ 39.5 µM) | 4 (≈ 9.88 µM) | 2 (≈ 4.94 µM) | Cc1ccc2oc(=O)c(C(=O)Nc3c(C#N)cnn3-c3ccc(Cl)cc3)cc2c1
2 (≈ 4.48 µM) | 1 (≈ 2.24 µM) | 8 (≈ 17.9 µM) | 0.25 (≈ 0.56 µM) | CCN(CC)c1ccc2cc(C(=O)Nc3c(C(=O)O)cnn3-c3ccccc3)c(=O)oc2c1
2 (≈ 4.41 µM) | 64 (≈ 141 µM) | 64 (≈ 141 µM) | > 128 | N#Cc1cnn(-c2ccc(F)cc2)c1NC(=O)c1cc2cc(Br)ccc2oc1=O

Source: ChEMBL document CHEMBL4270589, “Novel coumarin-pyrazole carboxamide derivatives as potential topoisomerase II inhibitors: Design, synthesis and antibacterial activity” (Eur J Med Chem, 2018)
